Marks after values point to notes of the source that are not given here.
Key:
Type in all cases: in vivo
[1] = test system: PC-3 human hormone-independent prostate cancer; test: PC-3 human prostate cancer xenografts in nude mice, Experiment 1; settings: 10 μg/day s.c., daily for 35 days; means±S.E.
Procedure: (§1) Male nude mice were implanted s.c. with 3 mm^3 pieces of PC-3 human hormone-independent prostate cancer tissue on both flanks. When tumors reached a volume of approx. 50 mm^3, the mice were divided into 4 experimental groups with 8 to 10 animals in each group and received single daily injections for 35 days as follows: 1. Control (vehicle solution); 2. JMR-132 (10 μg/day s.c.); 3. Peptide 1109 (10 μg/day s.c.); 4. Peptide 11111 (10 μg/day s.c.); Tumor volumes were measured once a week. The experiment was ended on day 35 by sacrificing the mice under Isoflurane anesthesia. Resulting tumors were cleaned, weighed, and snap-frozen until further analyses. Statistical analyses of the measurement results were done by two-tailed t-test, p<0.05 being considered significant. Data are presented as the means±S.E.

[2] = test system: PC-3 human hormone-independent prostate cancer; test: PC-3 human prostate cancer xenografts in nude mice, Experiment 2
Procedure: as §1
Experiment 2 was similar to Experiment 1. Experiment 2 was started when PC-3 tumors had grown to approximately 50 mm^3 in volume. At this time, the animals were divided into 5 experimental groups with 8 animals in each group, and received single daily injections for 14 days as follows: 1. Control (vehicle solution); 2. JMR-132 (10 μg/day s.c.); 3. Peptide 1109 (5 μg/day s.c.); 4. Peptide 11109 (5 μg/day s.c.); 5. Peptide 11109 (2 μg/day s.c.). Further details of Experiment 2 are the same as for Experiment 1

[3] = test system: H-460 human non-small cell lung cancer; test: H-460 human non-SCLC xenografts in nude mice, Experiment 1; settings: 10 μg/day s.c., 28 days; means±S.E.
Procedure: Male nude mice were implanted s.c. with 3 mm^3 pieces of H-460 human non-SCLC tumor tissue on both flanks. When tumors had grown to a mean volume of approximately 90 mm^3, the mice were randomly assigned into 4 experimental groups with 10 animals in each group and received single daily injections for 28 days as follows: 1. Control (vehicle solution); 2. JMR-132 (10 μg/day s.c.); 3. Peptide 1109 (10 μg/day s.c.); 4. Peptide 11111 (10 μg/day s.c.). Tumor volumes were measured once a week. The experiment was ended on day 28 by sacrificing the mice under Isoflurane anesthesia. Resulting tumors were cleaned, weighed, and snap-frozen until further analyses. Statistical analyses of the measurement results were done by two-tailed t-test, p<0.05 being considered significant. Data are presented as the means±S.E.

[4] = test system: MDA-MB-231 human estrogen independent breast cancer; test: MDA-MB-231 human estrogen independent breast cancer xenografts in nude mice; settings: 5 μg/day s.c., 28 days
Procedure: Female nude mice were xenografted s.c. with MDA-MB-231 tumor tissue from donor animals. When tumors had grown to a mean volume of approximately 50 mm^3, the mice were randomly assigned into 2 experimental groups with 10 animals in each group and received single daily injections for 28 days as follows: 1. Control (vehicle solution); 2. Peptide 1109 (5 μg/day s.c.). Tumor volumes were measured once a week. The experiment was ended on day 28 by sacrificing the mice under Isoflurane anesthesia. Resulting tumors were cleaned, weighed, and snap-frozen until further analyses. Statistical analyses of the measurement results were done by two-tailed t-test, p<0.05 being considered significant.

[5] = test system: NCI-N87 human gastric cancer; test: NCI-N87 human gastric cancer xenografts in nude mice; settings: 10 μg/day s.c.
Procedure: NCI-N87 cancers were transplanted s.c. into both flank areas of 30 female nude mice. The mice were randomly assigned into 4 experimental groups with 6 to 9 animals in each group and received single daily injections for 77 days as follows: 1. Control (vehicle solution); 2. JMR-132 (10 μg/day s.c.); 3. Peptide 1109 (10 μg/day s.c.); 4. Peptide 11479 (10 μg/day s.c.). Tumor volumes were measured once a week. The experiment was ended on day 77 by sacrificing the mice under Isoflurane anesthesia. Resulting tumors were cleaned, weighed, and snap-frozen until further analyses. Statistical analyses of the measurement results were done by two-tailed t-test, p<0.05 being considered significant. Data are presented as the means±S.E.

[6] = test system: SK-Hep-1 human hepatocellular cancer; test: SK-Hep-1 human hepatocellular cancer xenografts in nude mice; settings: for Tumor volume (mm^3) on day 135: means±S.E.; for Tumor weights (mg): tumors removed at autopsy
Procedure: SK-Hep-1 cancers were transplanted s.c. into both flank areas of 66 female nude mice, and allowed to grow for 47 days before starting the treatment with GH-RH antagonists. The mice were randomly assigned into 4 experimental groups with 8 animals in each group and received single daily injections for 135 days as follows: 1. Control (vehicle solution); 2. JMR-132 (10 μg/day s.c.); 3. Peptide 1109 (5 μg/day s.c.); 4. Peptide 1109 (10 μg/day s.c.). Tumor volumes were measured once a week. The experiment was ended on day 135 by sacrificing the mice under Isoflurane anesthesia. Resulting tumors were cleaned, weighed, and snap-frozen until further analyses. Statistical analyses of the measurement results were done by two-tailed t-test, p<0.05 being considered significant. Data are presented as the means±S.E.

[PhAc^0-Tyr^1, D-Arg^2, Cpa^6, Ala^8, Har^9, Tyr(Me)^10, His^11, Abu^15, Glu^17, His^20, Nle^27, D-Arg^28, Har^29]hGH-RH(1-29)NH2 [Peptide 1109]
Tumor growth after 5 weeks (%) [1]: 1502 ± 405% | Tumor growth after 2 weeks (%) ([2]; 5 μg/day s.c., 14 days): 311% | Inhibition of PC-3 tumor growth compared with reference peptide JMR-132 ([2]; Peptide 1109 5 μg/day, Peptide 11109 5 and 2 μg/day, JMR-132 10 μg/day, 14 days): inhibited the growth of PC-3 tumors more potently than reference peptide JMR-132 | Inhibition (%) ([2]; tumor growth after 2 weeks, 5 μg/day s.c.): 56.58% | Tumor growth after 4 weeks (%) [3]: 1042 ± 181% | Inhibition of the growth of MDA-MB-231 human breast cancers [4]: about 75% | Number of regressing tumors ([5]; 77 days): 6 | Tumor growth after 77 days (%) ([5]; 77 days, means±S.E.): 225 ± 59 % | Tumor weights ([5]; day 77, means±S.E.): 170 ± 52 mg | Tumor doubling time ([5]; calculated without the regressing tumors): 93.6 ± 30.7 days | Tumors with total regression ([6]; 5 μg/day s.c., 135 days): 5 | Tumor volume (mm^3) on day 135 ([6]; 5 μg/day s.c., 135 days): 271 ± 98 mm^3 | Tumor weights (mg) ([6]; 5 μg/day s.c.): 565 ± 115 (6) mg | Inhibition of SK-Hep-1 hepatic cancer growth compared with reference peptide JMR-132 ([6]; 5 μg/day vs JMR-132 10 μg/day, 135 days): more potently inhibited the growth of SK-Hep-1 hepatic cancers than the reference peptide JMR-132 | Tumors with total regression ([6]; 10 μg/day s.c., 135 days): 7 | Tumor volume (mm^3) on day 135 ([6]; 10 μg/day s.c., 135 days): 200 ± 123* mm^3 | Tumor weights (mg) ([6]; 10 μg/day s.c.): 605 ± 281 (4) mg

Reference: patent US9260504B2, “N- and C-terminal substituted antagonistic analogs of GH-RH” (University of Miami, priority 2008, dated 2016)
